Experimental data reported in PubChem BioAssay AID463229 (Broad Institute, 2010).

Each compound was assayed on INS-1E rat beta cells, no cytokines, CellTiter-Glo ATP, 48 h (assay: ATP level change in INS-1E without cytokines, dose response, counter-screen for beta-cell apoptosis protection project, INS-1E rat cells, ATP luminescence, cherry pick (AID 463229)).

SMILES	AC50
CCCCC1(Cc2ccc([N+](=O)[O-])cc2)C(=O)N(c2ccccc2)N(c2ccccc2)C1=O	3.72 µM
CC(C)CN(C(=O)COC(=O)C12CC3CC(CC(Cl)(C3)C1)C2)c1c(N)n(Cc2ccccc2)c(=O)[nH]c1=O	6.97 µM
O=C(NCc1ccccc1)C1=C[C@@H](c2csc3ccccc23)C[C@@H](OCCCCO)O1	2.67 µM
CCCCCCc1cc2cc(-c3nnc(-c4ccccc4O)o3)c(=O)oc2cc1O	7.66 µM
O=C(Nc1cccnc1)C1(F)C(F)(F)C(F)(F)C(F)(F)C(F)(F)C1(F)F	3.56 µM
COCCNC(=O)CSC1=N/C(=C/c2ccc(Cl)c(Cl)c2)C(=O)N1c1ccccc1F	8.25 µM
CC[C@@]1(O)C(=O)OCc2c1cc1n(c2=O)Cc2cc3c(N)cccc3nc2-1	< 0.195 µM
COc1cccc(/C=N/NC(=O)c2c(-c3ccccc3)noc2C)c1O	8.09 µM
COc1cccc(/C=N/NC(=O)c2cc(-c3ccccn3)nc3ccccc23)c1O	7.61 µM
CC(=O)CSc1ccc(-c2nc3ccccc3[nH]2)cn1	6.38 µM
COc1cc(/C=N/N=C(N)N)ccc1OCc1ccc(Cl)cc1	7.22 µM
O=C(N/N=C/c1cc([N+](=O)[O-])ccc1O)c1cccc2ccccc12	9.87 µM
CC1Sc2ccc(S(=O)(=O)N3CCC(C(=O)Nc4ccc(Cl)cc4)CC3)cc2NC1=O (centres undefined)	6.13 µM
O=C(Nc1ccc(Cl)cc1)/C(=C/c1cccc(O)c1)c1nc2ccccc2s1	4.46 µM
CC(C)c1nc(-c2ccccc2)c(-c2ccccc2)[nH]1	6.81 µM
CNC1=C(N(C(C)=O)c2ccc(Br)cc2)C(=O)c2ccccc2C1=O	0.943 µM
Cc1cc(C)n(-c2nc(Nc3ccccc3C(F)(F)F)nc(-n3nc(C)cc3C)n2)n1	6.87 µM
c1ccc(-c2cc(-c3ccccc3)[n+](-c3ccccc3)c(-c3ccccc3)c2)cc1	2.65 µM
CCCCCCn1c(=O)c(C(=O)Nc2ncccc2C)c(O)c2ccccc21	5.5 µM
COc1ccc2nc(N=Nc3ccc(O)c4ccccc34)sc2c1	7.16 µM
Cc1cc(=O)[nH]c(N/N=C/c2ccccn2)n1	5.21 µM
Cc1ccc(S(=O)(=O)N2CCOCC2)cc1C(=O)Nc1nc(-c2ccccn2)cs1	7.77 µM

SMILES	AC50
COc1ccc(NS(=O)(=O)c2ccc(N3CCOCC3)c(N)c2)cc1	7.12 µM
O=C(N/N=C/c1ccccc1O)/C(=C/c1ccccc1)CCO	7.67 µM
CCCCC[n+]1cccc2c3ccccc3ccc21	5.92 µM
COc1ccc(-c2c[n+]3c(n2-c2ccc(C)cc2)CCCCC3)cc1	0.317 µM
CCOC(=O)c1cnc(-n2nc(C)cc2C)nc1NC1CCCC1	2.38 µM
COc1ccc2nc(/C(C#N)=C\c3ccc(Oc4ccc([N+](=O)[O-])cn4)cc3)[nH]c2c1	6.77 µM
C=CCSc1nsc(NC(=O)Nc2ccc(F)cc2)n1	3.4 µM
CC(C)(C)c1cc(CCC(=O)NNC(=S)NC(=O)c2ccccc2)cc(C(C)(C)C)c1O	7.17 µM
NS(=O)(=O)c1ccc(N/N=C2/CCCCC2C2CCCCC2)c([N+](=O)[O-])c1 (centres undefined)	8.1 µM
CCOc1cc(S(=O)(=O)NCc2ccncc2)ccc1Cl	1.19 µM
Cc1ccn2c(Nc3ccccc3C)c(-c3ccccn3)nc2c1	9.55 µM
N#C/C(N=Nc1ccccc1O)=N\Nc1ccccc1O	4.12 µM
COc1ccc(C(CCNCc2ccc(OC(C)C)cc2)c2ccccc2OC)cc1 (centres undefined)	7.84 µM
COc1ccc(-c2nn(-c3ccccc3)cc2/C=N/Nc2ccc3ccccc3n2)cc1OC	7.19 µM
Cc1cc(/C=N/n2cnnc2)c(C)n1-c1ccc(OCc2ccc(Cl)cc2Cl)cc1	1.71 µM
O=C(NCCOc1cccnc1)c1ccc(OC2CCN(Cc3ccccn3)CC2)cc1	< 0.195 µM
CN(CC1CCCO1)S(=O)(=O)c1ccc(C(=O)Nc2nc(-c3ccccn3)cs2)cc1 (centres undefined)	10.4 µM
Nc1c(Cl)ncnc1N/N=C/c1ccccn1	2.07 µM
Oc1c(C(Nc2ccccn2)c2cccnc2)cc(Cl)c2cccnc12 (centres undefined)	7.48 µM
COc1ccc(CC(=O)Nc2ccncc2Cl)cc1	10.6 µM
O=C(Cc1ccccc1)N/N=C/c1ccc([N+](=O)[O-])s1	7.26 µM
N=c1c2c(n(Cc3cccc(Cl)c3)c3c1CCC3)CCCC2	7.28 µM
